Data: patent publication US11040947B2, “Substituted quinazolines as matrix metalloproteinase-9 hemopexin domain inhibitors” (The Research Foundation for The State University of New York, priority 2017, dated 2021)

Legend:
[1] = tested on: proMMP-2-mediated migration of COS-1 cells; assay: two-dimensional dot migration assay, COS-1 cells stably expressing proMMP-2; format: cell-based
Experimental: (§1) To test whether compound 3c is specific for inhibiting only proMMP9-mediated migration, a two-dimensional dot migration assay was performed using COS-1 cells engineered to stably express vector control pQCXIP, proMMP-2, proMMP-9, or proMMP-14 cDNA vectors. An immunoblot was performed to confirm protein expression and proper localization of each MMP (MMP-2/-9 are secreted while MMP-14 is membrane bound).

[2] = tested on: FAK and PAX adhesion junctions in HT1080 cells; assay: focal adhesion complexes, immunofluorescence in HT1080 cells; format: cell-based, Human; conditions: 50 μM overnight
[3] = target: T1, MMP-9 association with CD44 and EGFR (Homo sapiens, UniProt P14780); assay: co-immunoprecipitation of endogenous CD44 and EGFR with MMP-9 in HT1080 cells; format: cell-based; conditions: 50 μM overnight
T1 construct: expressed in transfected cells; host or cells: HT1080 human fibrosarcoma cells (MMP-9 transfected; CD44 and EGFR endogenous)

[4] = tested on: proMMP-14-mediated migration of COS-1 cells; assay: two-dimensional dot migration assay, COS-1 cells stably expressing proMMP-14; format: cell-based
Experimental: as §1

[5] = target: T2, APMA-activated recombinant proMMP-9 (Homo sapiens, UniProt P14780); assay: MMP-9 catalytic activity with fluorogenic peptide; format: biochemical; conditions: 10 μM fluorogenic peptide, monitored over 2 hours
T2 construct: made in house
Experimental: Recombinant proMMP-9 protein was purified and incubated overnight in a 37° C. water bath in TNC buffer+1 mM APMA to artificially activate the protein.

[6] = tested on: proMMP9-mediated migration of COS-1 cells; assay: two-dimensional dot migration assay, COS-1 cells stably expressing proMMP-9; format: cell-based
Experimental: as §1

HT1080 cells [7] = assay: chorioallantoic membrane (CAM) assay, angiogenesis; format: in vivo, chicken embryo; conditions: 100 μM stock solution (final estimated 0.5 μM), 4-day incubation, vs DMSO and 1f
Experimental: A CAM assay was carried out to evaluate angiogenic and invasive potential of HT1080 cells after treatment with 3c. […] After a 4-day incubation, neovascularization was imaged and quantified.

[8] = tested on: EGFR^Tyr1068, AKT^Ser473, Erk1/2^Thr202/Tyr204 phosphorylation; assay: phosphorylation of EGFR and downstream targets in HT1080 cells; format: cell-based, Human; conditions: 50 μM overnight
[9] = target: T3, MMP-9 interaction with α4/β1 integrin (Homo sapiens, UniProt P14780); assay: co-immunoprecipitation of endogenous integrin with MMP-9 in HT1080 cells; format: cell-based; conditions: 50 μM
T3 construct: expressed in transfected cells; host or cells: HT1080 cells (MMP-9 transfected; integrin endogenous)
Experimental: (§2) HT1080 cells transiently co-transfected with tagged MMP-9 cDNAs were prepared as described above.

HT1080 cells [10] = assay: cell adhesion to collagen or fibronectin coated plate; format: cell-based, Human; conditions: 37° C. 30 min
Experimental: A 96-well plate was coated with a thin layer of either collagen or fibronectin (5 μg/ml in PBS) substrate before use. HT1080 cells were then seeded onto wells and incubated at 37° C. for 30 min in the presence of various inhibitors. Wells were washed and cells were fixed in 4% paraformaldehyde and stained with DAPI. Images of each 96-well were microscopically captured and counted for the number of cells still adherent to the coated surface using automated computer software.

[11] = tested on: Src^Tyr418, FAK^Tyr576/577, PAX^Tyr118 phosphorylation; assay: phosphorylation of Src and downstream targets in HT1080 cells; format: cell-based, Human; conditions: 50 μM
Experimental: as §2

[12] = tested on: MMP-9 at the cell surface of HT1080 cells; assay: MMP-9 cell surface localization, immunofluorescence in HT1080 cells; format: cell-based, Human
Experimental: HT1080 cells were fixed in 4% paraformaldehyde then subsequently incubated with anti-MMP-9 in addition to anti-α4 and/or β1 integrin antibodies to monitor relative levels of localization of these proteins at the cell surface. The cells were counterstained with DAPI nuclear dye.

[13] = tested on: proMMP9-mediated migration of COS-1 cells; assay: two-dimensional collagen dot migration assay, COS-1 cells overexpressing proMMP-9; format: cell-based; conditions: above 50 μM
Experimental: This assay was initially used to test the efficacy of analogs at a single concentration, 50 μM.
Cells were mixed with type I collagen solution with or without compound, dotted onto a 96-well plate, and allowed to migrate for 18 hours. They were then fixed, stained and scored for extent of migration.

[14] = tested on: HT1080 cells stably expressing GFP; assay: chorioallantoic membrane (CAM) assay, invasion; format: in vivo, chicken embryo; conditions: 100 μM stock solution (final estimated 0.5 μM), vs DMSO or 1f
Experimental: HT1080 cells stably expressing GFP were mixed with a type I collagen solution (3 mg/mL) and seeded atop the CAM to ensure the cells localized to a specific area. […] The invasion of cancer cells through the epithelium and basement membrane of the upper CAM into connecting tissue was examined by hematoxylin and eosin staining in addition to fluorescence microscopy for GFP^+ cells.

T3 sequence (P14780 94-707): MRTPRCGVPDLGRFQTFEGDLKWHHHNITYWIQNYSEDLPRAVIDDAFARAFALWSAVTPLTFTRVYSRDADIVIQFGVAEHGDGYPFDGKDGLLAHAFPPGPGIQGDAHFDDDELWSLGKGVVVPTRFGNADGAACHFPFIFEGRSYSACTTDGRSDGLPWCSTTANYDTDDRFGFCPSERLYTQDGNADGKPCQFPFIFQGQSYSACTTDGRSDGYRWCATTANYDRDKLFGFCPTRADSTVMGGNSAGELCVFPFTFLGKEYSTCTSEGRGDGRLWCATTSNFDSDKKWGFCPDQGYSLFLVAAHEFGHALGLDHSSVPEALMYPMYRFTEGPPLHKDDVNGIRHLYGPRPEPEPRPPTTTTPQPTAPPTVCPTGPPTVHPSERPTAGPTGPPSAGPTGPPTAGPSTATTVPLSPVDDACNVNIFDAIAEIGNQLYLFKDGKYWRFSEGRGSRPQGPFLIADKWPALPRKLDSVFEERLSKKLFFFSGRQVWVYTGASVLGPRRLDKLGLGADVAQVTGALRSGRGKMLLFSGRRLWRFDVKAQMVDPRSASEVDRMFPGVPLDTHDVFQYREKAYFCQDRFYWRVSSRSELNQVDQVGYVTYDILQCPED
T1 sequence (P14780 94-707): as above
T2 sequence (P14780 107-707 limits assumed): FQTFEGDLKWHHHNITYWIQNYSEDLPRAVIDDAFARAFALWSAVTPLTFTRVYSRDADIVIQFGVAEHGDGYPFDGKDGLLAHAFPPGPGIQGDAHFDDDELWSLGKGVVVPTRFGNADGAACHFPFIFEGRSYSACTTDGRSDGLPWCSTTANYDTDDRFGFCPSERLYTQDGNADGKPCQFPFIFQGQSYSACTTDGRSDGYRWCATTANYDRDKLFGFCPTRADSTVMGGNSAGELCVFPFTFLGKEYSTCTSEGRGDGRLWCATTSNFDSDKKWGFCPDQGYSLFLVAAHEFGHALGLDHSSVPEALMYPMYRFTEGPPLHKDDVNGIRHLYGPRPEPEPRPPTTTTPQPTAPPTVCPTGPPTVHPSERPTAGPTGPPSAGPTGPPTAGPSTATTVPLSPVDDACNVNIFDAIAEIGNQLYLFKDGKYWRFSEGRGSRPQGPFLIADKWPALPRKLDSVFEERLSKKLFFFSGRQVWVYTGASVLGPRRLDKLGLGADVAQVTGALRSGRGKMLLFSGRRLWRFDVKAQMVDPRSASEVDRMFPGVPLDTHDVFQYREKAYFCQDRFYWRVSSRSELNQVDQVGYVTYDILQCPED

**Q.** With `CCCc1cc(=O)nc(SCC(=O)Nc2ccc(OC(F)F)cc2)[nH]1` [Compound 1a, N-(4-Difluoromethoxyphenyl)-2-(4-oxo-6-propyl-1,4-dihydropyrimidin-2-ylthio)acetamide] as the molecule, how does the “inhibition of proMMP-2-mediated migration” value [1] read?
**A.** Its value is “only inhibited proMMP9-mediated migration”.

**Q.** What about the “formation of FAK and PAX adhesion junctions” value [2] of the same molecule?
**A.** Its value is “A decrease in the formation of FAK and PAX adhesion junctions”.

**Q.** And the “endogenous CD44 and EGFR co-immunoprecipitation” value [3]?
**A.** Its value is “reduced endogenous CD44 and EGFR co-immunoprecipitation”.

**Q.** What about the “inhibition of proMMP-14-mediated migration” value [4] of the same molecule?
**A.** Its value is “only inhibited proMMP9-mediated migration”.

**Q.** What about the “inhibition of MMP-9 catalytic activity” value [5] of the same molecule?
**A.** The value was “No inhibition of the catalytic activity was observed”.

**Q.** And the “inhibition of proMMP-9-mediated migration” value [6]?
**A.** Its value is “only inhibited proMMP9-mediated migration”.

**Q.** What about the “angiogenic potential of HT1080 cells (neovascularization)” value (HT1080 cells [7]) of the same molecule?
**A.** Its value is “significantly reduced the angiogenic potential of HT1080 cells”.

**Q.** And the “phosphorylation of EGFR^Tyr1068 and downstream targets AKT^Ser473 and Erk1/2^Thr202/Tyr204” value [8]?
**A.** The value was “reduced phosphorylation”.

**Q.** And the “endogenous α4β1 integrin co-immunoprecipitation” value [9]?
**A.** Its value is “reduced endogenous α4β3 integrin co-immunoprecipitation”.

**Q.** And the cellular adhesion (HT1080 cells [10])?
**A.** The cellular adhesion was “inhibited cellular adhesion”.

**Q.** And the “Src^Tyr418 phosphorylation and phosphorylation of FAK^Tyr576/577 and PAX^Tyr118” value [11]?
**A.** Its value is “reduced Src^Tyr418 phosphorylation”.

**Q.** And the “localization of MMP-9 on the cell surface” value [12]?
**A.** Its value is “loss of MMP-9 from the cell surface”.

**Q.** What about the “inhibitor effectiveness at concentrations above 50 μM” value [13] of the same molecule?
**A.** The value was “did not increase inhibitor effectiveness”.

**Q.** And the “invasion of CAM tissue” value [14]?
**A.** Its value is “reduced invasion of CAM tissue”.
